From patent US12403128B2, “Compositions and methods for blocking sodium channels” (University of Virginia Patent Foundation, priority 2017, dated 2025)
≈ marks a conversion by molar mass, not a printed value. Counter-ions that a name gives are not always drawn.

Legend:
[1] = target: T1, NaV1.7 (Homo sapiens, UniProt Q15858); experiment: High-throughput flux assay, NaV1.7; type: cell-based; conditions: human isoform;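 note: IC50 from the flux assay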
Method: (§1) Evaluation of Compounds on Human Isoforms Using a High-Throughput Flux Assay
(§2) Compounds were tested using a high-throughput flux assay across Nav1.5, Nav1.6 and Nav1.7.

[2] = target: T2, NaV1.5 (Homo sapiens, UniProt Q14524); experiment: Qube assay, NaV1.5; type: cell-based; conditions: human isoform; read-out: Qube EP IC50 NaV1.5
Method: (§3) Evaluation of Compounds on Human Isoforms Using Qube Assay.
(§4) Compounds were tested using a Qube assay across NaV1.5, NaV1.6 and NaV1.7.

[3] = target: NaV1.6 sodium channels (Homo sapiens, UniProt Q9UQD0); experiment: State-dependent inhibition: steady state inactivation, use-dependent block; type: cell-based; conditions: for use-dependent block: 20 Hz
From the text: Evaluation of Compounds as State-Dependent Inhibitors
Use dependent block is an important characteristic for AED activity since it allows increased inhibition of sodium channels during increased neuronal activity as is observed during seizures.

[4] = target: T1, NaV1.7; experiment: Qube assay, NaV1.7; type: cell-based; conditions: human isoform; read-out: Qube EP IC50 NaV1.7
Method: as §3, §4

[5] = target: T2, NaV1.5; experiment: High-throughput flux assay, NaV1.5; type: cell-based; conditions: human isoform;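 note: IC50 from the flux assay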
Method: as §1, §2

[6] = target: T3, rat NaV1.6 sodium channels (Rattus norvegicus, UniProt O88420); experiment: Dose response on rat NaV1.6 channels in HEK293 cells; type: cell-based; conditions: rat Nav1.6 channel
T3 construct: expressed in transfected cells; host or cells: HEK293
From the text: Evaluation of Dose Response and Activation Response Compounds on Rat NaV1.6 Channels in Human Embryonic Kidney Cells (HEK293).

[7] = target: T4, Nav1.6 (Homo sapiens, UniProt Q9UQD0); experiment: % block of Nav1.6 at 100 μM and IC50 (NaV1.6); type: cell-based; conditions: for inhibition at 100 µM: 100 μM compound
Method: Evaluation of Compounds for % Block of Nav1.6 at 100 μM
Compounds of the present invention were tested in an assay for % block of Nav1.6 at a concentration of 100 μM compound. Table 1 also indicates the melting point ranges for some compounds.
Some such compounds correspond to a compound of Formula III, wherein R9 is substituted with a halogen, a nitro or a CF3 group. In comparing MV1089, MV1090 and MV1091, it is shown that compounds of Formula III where R3 is H result in higher % block than when R3 is substituted. e.g., by OCH3. In comparing MV1066, MV1084, MV1085, MV1086, MV1087 and MV1088, it is shown that compounds of Formula III where R9 is halogen, a nitro or a CF3 group result in higher % block than when R9 is OCH3, COOH or CH3.

[8] = test system: knock-in mouse carrying the human N1768D gain of function NaV1.6 mutation (spontaneous seizures); experiment: Seizure suppression in NaV1.6 mutation knock-in mouse model; type: in vivo; conditions: 100 mg/kg
Method: In Vivo Evaluation for Seizure Suppression in a Human Gain of Function NaV1.6 Mutation Knock-In Mouse Model.
Compounds were tested in vivo for seizure suppression in a knock-in mouse carrying the human N1768D gain of function NaV1.6 mutation. These knock-in mice experience spontaneous seizures. All test compounds were evaluated at 100 mg/kg.

[9] = target: T4, Nav1.6; experiment: High-throughput flux assay, Nav1.6; type: cell-based; conditions: human isoform;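 note: IC50 from the flux assay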
Method: as §1, §2

[10] = target: T4, Nav1.6; experiment: Qube assay, NaV1.6; type: cell-based; conditions: human isoform; read-out: Qube EP IC50 NaV1.6
Method: as §3, §4

[11] = test system: Metrazol-induced clonic seizures; experiment: scM test, comparison compounds (species not stated); type: in vivo
Method: Subcutaneous injection of the convulsant Metrazol produces clonic seizures in laboratory animals. […] Animals may be pretreated with various doses of the test compound given by ip injection. At a previously determined TPE (time to peak) of the test compound, the dose of Metrazol which will induce convulsions in 97% of animals (CD97:85 mg/kg mice) may be injected into a loose fold of skin in the midline of the neck. The animals may be placed in isolation cages to minimize stress and observed for the next 30 min for the presence or absence of a seizure. An episode of clonic spasms, approximately 3-5 seconds, of the fore and/or hindlimbs, jaws, or vibrissae may be taken as the endpoint. […] The scM test represents acute animal seizures.

[12] = test system: 6 Hz psychomotor seizures; experiment: 6 Hz test, comparison compounds (species not stated); type: in vivo; conditions: species and current not stated
Method: Compounds were tested using a 6 Hz psychomotor seizure test. […] For example, both the MES and scM models are insensitive to levetiracetam, a compound considered potentially useful in the management of refractory seizures. […] Thus, the 6 Hz test can serve as a therapy resistant screening paradigm of acute seizure activity.

[13] = test system: maximal electroshock (MES) seizures; experiment: MES test, comparison compounds (species not stated); type: in vivo
From the text: The MES is a model for generalized tonic-clonic seizures and provides an indication of a compound's ability to prevent seizure spread when all neuronal circuits in the brain are maximally active. These seizures are highly reproducible and are electrophysiologically consistent with human seizures. For an MES test, a drop of anesthetic/electrolyte solution (0.5% tetracaine hydrochloride in 0.9% saline) is applied to the eyes of each animal prior to placement of corneal electrodes Electrical stimulus in the MES test may be 50 mA, 60 Hz, for mice and 150 mA, 60 Hz, for rats delivered for 0.2 s. Abolition of the hindleg tonic extensor component of the seizure was used as the endpoint. Mice may be initially tested at various intervals following various doses, e.g., 30, 100 and 300 mg/kg of test compound given by intraperitoneal (IP) injection while rats are initially screened at a fixed dose of 30 mg/kg

[14] = Tox, comparison compounds (species not stated); type: in vivo
[15] = Solubility; type: physicochemical
[16] = target: CYP3A4 (Homo sapiens, UniProt P08684); experiment: Metabolic stability (CYP3A4); type: in vitro ADME; conditions: CYP3A4, 1 hr
[17] = Chemical stability; type: physicochemical; conditions: after 24 h at pH 7.4

T3 sequence (O88420 whole entry): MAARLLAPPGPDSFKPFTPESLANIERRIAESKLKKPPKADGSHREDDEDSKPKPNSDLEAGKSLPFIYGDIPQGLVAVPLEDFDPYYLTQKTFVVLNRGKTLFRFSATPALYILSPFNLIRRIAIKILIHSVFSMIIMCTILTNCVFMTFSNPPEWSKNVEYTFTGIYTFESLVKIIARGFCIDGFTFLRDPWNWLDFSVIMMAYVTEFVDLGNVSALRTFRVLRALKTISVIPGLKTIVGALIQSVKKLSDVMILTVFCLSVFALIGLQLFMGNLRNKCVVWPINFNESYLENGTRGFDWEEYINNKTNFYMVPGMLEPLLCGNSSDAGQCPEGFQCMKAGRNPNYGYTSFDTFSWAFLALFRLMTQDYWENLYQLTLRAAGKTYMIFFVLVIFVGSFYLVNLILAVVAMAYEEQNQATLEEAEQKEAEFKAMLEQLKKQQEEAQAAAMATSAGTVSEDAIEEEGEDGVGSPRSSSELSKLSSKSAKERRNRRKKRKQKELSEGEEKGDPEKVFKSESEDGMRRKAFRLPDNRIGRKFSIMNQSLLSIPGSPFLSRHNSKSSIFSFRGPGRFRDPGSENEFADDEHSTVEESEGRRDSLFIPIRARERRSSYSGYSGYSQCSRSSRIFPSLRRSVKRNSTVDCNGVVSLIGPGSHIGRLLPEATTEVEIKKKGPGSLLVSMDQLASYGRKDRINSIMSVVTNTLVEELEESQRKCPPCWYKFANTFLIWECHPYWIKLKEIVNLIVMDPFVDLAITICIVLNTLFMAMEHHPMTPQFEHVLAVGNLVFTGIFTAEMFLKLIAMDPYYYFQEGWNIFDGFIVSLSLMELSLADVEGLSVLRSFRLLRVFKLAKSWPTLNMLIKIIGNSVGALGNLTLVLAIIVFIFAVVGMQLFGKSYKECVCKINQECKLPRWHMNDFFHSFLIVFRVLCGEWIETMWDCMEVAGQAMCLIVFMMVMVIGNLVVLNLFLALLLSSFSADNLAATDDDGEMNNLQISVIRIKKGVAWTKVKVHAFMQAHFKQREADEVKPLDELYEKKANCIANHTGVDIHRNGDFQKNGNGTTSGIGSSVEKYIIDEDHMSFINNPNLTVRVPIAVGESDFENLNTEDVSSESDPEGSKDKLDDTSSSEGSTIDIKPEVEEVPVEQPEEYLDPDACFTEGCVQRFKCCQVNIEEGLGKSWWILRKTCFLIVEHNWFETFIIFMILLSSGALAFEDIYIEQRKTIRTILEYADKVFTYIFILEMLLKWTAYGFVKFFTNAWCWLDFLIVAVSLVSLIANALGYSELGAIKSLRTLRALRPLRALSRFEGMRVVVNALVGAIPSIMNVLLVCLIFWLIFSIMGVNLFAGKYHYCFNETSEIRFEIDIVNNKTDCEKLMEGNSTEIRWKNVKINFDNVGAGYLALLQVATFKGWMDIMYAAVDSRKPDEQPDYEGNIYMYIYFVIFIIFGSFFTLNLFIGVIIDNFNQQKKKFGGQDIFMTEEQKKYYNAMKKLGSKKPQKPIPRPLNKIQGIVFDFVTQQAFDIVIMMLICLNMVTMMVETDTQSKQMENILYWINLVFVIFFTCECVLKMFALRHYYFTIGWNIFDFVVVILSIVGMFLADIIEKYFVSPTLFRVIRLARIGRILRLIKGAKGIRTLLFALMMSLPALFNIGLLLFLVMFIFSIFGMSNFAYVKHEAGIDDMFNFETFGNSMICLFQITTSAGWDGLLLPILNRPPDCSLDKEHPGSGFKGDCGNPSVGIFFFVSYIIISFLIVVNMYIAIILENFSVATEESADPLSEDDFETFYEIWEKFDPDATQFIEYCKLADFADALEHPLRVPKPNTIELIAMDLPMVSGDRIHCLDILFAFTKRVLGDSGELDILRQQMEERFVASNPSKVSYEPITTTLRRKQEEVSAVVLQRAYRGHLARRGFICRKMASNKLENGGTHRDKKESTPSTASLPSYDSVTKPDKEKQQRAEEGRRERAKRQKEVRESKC
T4 sequence (Q9UQD0 whole entry): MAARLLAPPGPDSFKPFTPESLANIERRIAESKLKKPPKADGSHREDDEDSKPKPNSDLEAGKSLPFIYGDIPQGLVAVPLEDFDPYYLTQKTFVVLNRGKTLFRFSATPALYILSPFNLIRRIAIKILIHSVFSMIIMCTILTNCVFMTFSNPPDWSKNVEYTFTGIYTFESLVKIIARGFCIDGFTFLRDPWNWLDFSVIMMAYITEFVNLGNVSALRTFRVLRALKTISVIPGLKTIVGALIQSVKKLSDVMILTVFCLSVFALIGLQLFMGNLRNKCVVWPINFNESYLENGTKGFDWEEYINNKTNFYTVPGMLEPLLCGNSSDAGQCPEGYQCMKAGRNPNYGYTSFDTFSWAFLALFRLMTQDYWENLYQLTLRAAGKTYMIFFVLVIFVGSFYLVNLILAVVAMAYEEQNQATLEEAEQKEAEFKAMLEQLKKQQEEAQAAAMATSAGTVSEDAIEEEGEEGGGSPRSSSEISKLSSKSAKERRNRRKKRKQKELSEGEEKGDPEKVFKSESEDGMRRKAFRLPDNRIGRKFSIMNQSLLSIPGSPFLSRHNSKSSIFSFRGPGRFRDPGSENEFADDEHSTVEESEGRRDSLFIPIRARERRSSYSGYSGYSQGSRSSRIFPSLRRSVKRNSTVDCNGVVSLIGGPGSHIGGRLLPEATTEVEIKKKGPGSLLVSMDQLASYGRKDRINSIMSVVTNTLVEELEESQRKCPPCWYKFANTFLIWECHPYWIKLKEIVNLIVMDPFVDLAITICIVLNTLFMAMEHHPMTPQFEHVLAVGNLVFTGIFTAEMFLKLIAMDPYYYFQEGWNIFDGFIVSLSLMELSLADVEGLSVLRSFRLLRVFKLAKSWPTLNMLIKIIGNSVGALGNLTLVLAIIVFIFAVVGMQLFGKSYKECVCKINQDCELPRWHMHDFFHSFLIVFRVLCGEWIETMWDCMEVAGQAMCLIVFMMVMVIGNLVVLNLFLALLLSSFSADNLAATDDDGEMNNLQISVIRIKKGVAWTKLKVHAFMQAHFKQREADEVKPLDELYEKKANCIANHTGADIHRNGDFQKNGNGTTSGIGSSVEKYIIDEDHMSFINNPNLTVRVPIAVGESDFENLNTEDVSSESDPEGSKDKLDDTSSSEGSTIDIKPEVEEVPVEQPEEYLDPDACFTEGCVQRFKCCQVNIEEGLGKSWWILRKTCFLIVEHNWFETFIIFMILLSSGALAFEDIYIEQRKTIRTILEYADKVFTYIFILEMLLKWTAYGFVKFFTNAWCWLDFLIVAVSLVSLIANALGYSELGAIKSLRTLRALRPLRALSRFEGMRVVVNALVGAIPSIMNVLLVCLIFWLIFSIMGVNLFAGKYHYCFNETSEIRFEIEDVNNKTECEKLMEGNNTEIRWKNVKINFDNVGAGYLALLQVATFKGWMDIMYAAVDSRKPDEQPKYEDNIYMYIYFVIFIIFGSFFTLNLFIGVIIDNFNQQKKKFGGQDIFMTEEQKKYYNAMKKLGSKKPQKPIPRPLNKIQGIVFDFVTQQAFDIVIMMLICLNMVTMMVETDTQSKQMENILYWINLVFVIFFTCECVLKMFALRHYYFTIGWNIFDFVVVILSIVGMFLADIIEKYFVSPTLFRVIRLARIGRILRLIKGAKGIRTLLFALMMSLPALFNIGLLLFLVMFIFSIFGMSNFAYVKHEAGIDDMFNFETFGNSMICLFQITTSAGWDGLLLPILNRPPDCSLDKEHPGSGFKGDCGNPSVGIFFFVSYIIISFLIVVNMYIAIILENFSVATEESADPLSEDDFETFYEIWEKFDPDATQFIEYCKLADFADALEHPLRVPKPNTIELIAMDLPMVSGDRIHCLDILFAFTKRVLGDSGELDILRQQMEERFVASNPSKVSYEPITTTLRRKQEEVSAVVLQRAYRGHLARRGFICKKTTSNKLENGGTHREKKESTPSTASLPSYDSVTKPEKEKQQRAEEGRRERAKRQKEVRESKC
Chain of NaV1.6 sodium channels (Q9UQD0 whole entry): as above
Chain of CYP3A4 (P08684 whole entry, species assumed): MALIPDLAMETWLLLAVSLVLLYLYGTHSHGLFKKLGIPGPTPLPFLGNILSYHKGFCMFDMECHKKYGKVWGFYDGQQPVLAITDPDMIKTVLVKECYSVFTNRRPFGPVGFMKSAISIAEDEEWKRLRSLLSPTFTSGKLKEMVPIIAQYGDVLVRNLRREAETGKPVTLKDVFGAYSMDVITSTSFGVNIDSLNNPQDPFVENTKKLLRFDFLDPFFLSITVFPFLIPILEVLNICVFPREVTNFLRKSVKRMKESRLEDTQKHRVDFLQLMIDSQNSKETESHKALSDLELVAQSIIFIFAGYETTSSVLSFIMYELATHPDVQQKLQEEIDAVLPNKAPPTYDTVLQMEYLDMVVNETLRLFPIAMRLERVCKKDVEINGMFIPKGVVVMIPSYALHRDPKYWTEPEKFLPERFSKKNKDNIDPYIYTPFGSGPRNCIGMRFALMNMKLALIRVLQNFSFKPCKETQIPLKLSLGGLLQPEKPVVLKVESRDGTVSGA

Structure (SMILES) | IC50 [1] [µM] | shift of half maximal voltage for inactivation (V1/2) compared to control ([3]; 10 μM) [mV] | use-dependent block [3] | IC50 [4] [µM] | IC50 [6] [µM] | inhibition at 100 µM [7] [%] | IC50 [9] [µM] | IC50 [10] [µM] | IC50 [2] [µM] | IC50 [5] [µM] | seizure suppression [8] | ED50 [11] [mg/kg] | ED50 [12] [mg/kg] | ED50 [13] [mg/kg] | Tox [14] [mg/kg] | other results
COc1ccc(-c2nc(-c3ccccc3)c[nH]2)cc1 [MV1118] | – | – | – | – | – | – | – | – | – | – | – | 142 | 52.2 | 46.8 | 223 | –
c1ccc(-c2c[nH]c(-c3ccccc3)n2)cc1 [MV1115] | – | – | – | – | – | – | – | – | – | – | – | 160 | 47.2 | 61.7 | 126 | solubility ([15]; pH 3, aqueous buffer): 237 µM (≈ 52.2 µg/mL); solubility ([15]; pH 7.4, aqueous buffer): 175 µM (≈ 38.5 µg/mL); recovery at 1 hr [16]: 87%; IC50 ([7]; comparison compounds, read-out: IC50 (NaV1.6)): 32 µM; recovery at 24 h [17]: 94%

Now from value to molecule, other results behind:

IC50 [1] [µM] | shift of half maximal voltage for inactivation (V1/2) compared to control ([3]; 10 μM) [mV] | use-dependent block [3] | IC50 [4] [µM] | IC50 [6] [µM] | inhibition at 100 µM [7] [%] | IC50 [9] [µM] | IC50 [10] [µM] | Structure (SMILES) | IC50 [2] [µM] | IC50 [5] [µM] | seizure suppression [8] | ED50 [11] [mg/kg] | ED50 [12] [mg/kg] | ED50 [13] [mg/kg] | Tox [14] [mg/kg] | other results
5.22 | −12.7 | profound use-dependent block | 8.04 | 5.4 | 100 | 1.59 | 2.72 | Cc1nc(-c2cccc(Cl)c2)[nH]c1-c1ccccc1 [MV1505, 2-(3-chlorophenyl)-4-methyl-5-phenyl-1H-imidazole] | 10 | 3.64 | suppressed seizures | – | – | – | – | –
4.76 | – | – | 3.88 | 1.2 | 95 | 1.61 | 0.749 | Cc1nc(-c2ccc(Cl)cc2)[nH]c1-c1ccccc1 [MV1502, 2-(4-chlorophenyl)-4-methyl-5-phenyl-1H-imidazole hydrochloride] | 12.7 | 4.89 | suppressed seizures | – | – | – | – | shift of half maximal voltage for inactivation (V1/2) compared to control ([3]; 1 μM): −9.3 mV
5.72 | −10.9 | profound use-dependent block | 7.95 | 12 | 100 | 2.07 | 3.32 | Cc1nc(-c2cccc(C(F)(F)F)c2)[nH]c1-c1ccccc1 [MV1504, 4-methyl-5-phenyl-2-[3-(trifluoromethyl)phenyl]-1H-imidazole hydrochloride] | 13.3 | 4.32 | suppressed seizures | – | – | – | – | –
